Laboratory results reported in ChEMBL document CHEMBL4840373, “Aureonitol Analogues and Orsellinic Acid Esters Isolated from Chaetomium elatum and Their Antineuroinflammatory Activity” (J Nat Prod, 2021).
The source made the active and inactive calls. The calls are words filed in the database; no cut-off is given here.

Tests used:
[1] = system: BV-2; test: Cytotoxicity against mouse BV-2 cells assessed as reduction in cell viability at 120 uM after 24 hrs by MTT assay; format: cell-based; conditions: bv-2, 24 h
[2] = system: BV-2; test: Antiinflammatory activity in mouse BV-2 cells assessed as inhibition of LPS-induced NO production at 15 uM pretreated with compound for 1 hr followed by LPS stimulation for 24 hrs by Griess reagent based assay; format: functional, cell-based; conditions: time 25.0 hrs
[3] = system: BV-2; test: Antiinflammatory activity against mouse BV-2 cells assessed as inhibition of LPS-induced TNFalpha production at 15 to 60 uM pretreated with compound for 1 hr followed by LPS stimulation for 24 hrs by ELISA; format: functional, cell-based; conditions: dose 15-60 µM, time 25.0 hrs
[4] = system: BV-2; test: Antiinflammatory activity against mouse BV-2 cells assessed as inhibition of LPS-induced IL-6 production at 15 to 60 uM pretreated with compound for 1 hr followed by LPS stimulation for 24 hrs by ELISA; format: functional, cell-based; conditions: dose 15-60 µM, time 25.0 hrs
[5] = system: BV-2; test: Antiinflammatory activity against mouse BV-2 cells assessed as inhibition of LPS-induced IL-1beta production at 15 to 60 uM pretreated with compound for 1 hr followed by LPS stimulation for 24 hrs by ELISA; format: functional, cell-based; conditions: dose 15-60 µM, time 25.0 hrs
[6] = system: BV-2; test: Antiinflammatory activity against mouse BV-2 cells assessed as inhibition of LPS-induced ROS production at 15 to 60 uM pretreated with compound for 1 hr followed by LPS stimulation for 24 hrs by DCFH-DA staining based fluorescence microscopy; format: functional, cell-based; conditions: dose 15-60 µM, time 25.0 hrs
[7] = system: BV-2; test: Antiinflammatory activity against LPS-induced mouse BV-2 cells assessed as decrease in iNOS protein expression at 15 to 60 uM pretreated with compound for 1 hr followed by LPS stimulation after 24 hrs by Western blot analysis; format: functional, cell-based; conditions: dose 15-60 µM, time 25.0 hrs
[8] = system: BV-2; test: Antiinflammatory activity against LPS-induced mouse BV-2 cells assessed as decrease in COX2 protein expression at 15 to 60 uM pretreated with compound for 1 hr followed by LPS stimulation after 24 hrs by Western blot analysis; format: functional, cell-based; conditions: dose 15-60 µM, time 25.0 hrs
[9] = system: BV-2; test: Antiinflammatory activity against LPS-induced mouse BV-2 cells assessed as inhibition of TLR-4 protein expression at 15 to 60 uM pretreated with compound for 1 hr followed by LPS stimulation after 24 hrs by Western blot analysis; format: functional, cell-based; conditions: dose 15-60 µM, time 25.0 hrs
[10] = system: BV-2; test: Antiinflammatory activity against LPS-induced mouse BV-2 cells assessed as inhibition of NFkB protein expression at 15 to 60 uM pretreated with compound for 1 hr followed by LPS stimulation after 24 hrs by Western blot analysis; format: functional, cell-based; conditions: dose 15-60 µM, time 25.0 hrs
[11] = target: T1, Inhibitor of nuclear factor kappa-B kinase subunit beta (Mus musculus) (UniProt O88351); test: Inhibition of IKappaB phosphorylation in LPS-stimulated mouse BV-2 cells at 15 to 60 uM pretreated with compound for 1 hr followed by LPS stimulation for 24 hrs by Western blot analysis; format: cell-based; conditions: dose 15-60 µM, time 25.0 hrs
T1 sequence (whole entry): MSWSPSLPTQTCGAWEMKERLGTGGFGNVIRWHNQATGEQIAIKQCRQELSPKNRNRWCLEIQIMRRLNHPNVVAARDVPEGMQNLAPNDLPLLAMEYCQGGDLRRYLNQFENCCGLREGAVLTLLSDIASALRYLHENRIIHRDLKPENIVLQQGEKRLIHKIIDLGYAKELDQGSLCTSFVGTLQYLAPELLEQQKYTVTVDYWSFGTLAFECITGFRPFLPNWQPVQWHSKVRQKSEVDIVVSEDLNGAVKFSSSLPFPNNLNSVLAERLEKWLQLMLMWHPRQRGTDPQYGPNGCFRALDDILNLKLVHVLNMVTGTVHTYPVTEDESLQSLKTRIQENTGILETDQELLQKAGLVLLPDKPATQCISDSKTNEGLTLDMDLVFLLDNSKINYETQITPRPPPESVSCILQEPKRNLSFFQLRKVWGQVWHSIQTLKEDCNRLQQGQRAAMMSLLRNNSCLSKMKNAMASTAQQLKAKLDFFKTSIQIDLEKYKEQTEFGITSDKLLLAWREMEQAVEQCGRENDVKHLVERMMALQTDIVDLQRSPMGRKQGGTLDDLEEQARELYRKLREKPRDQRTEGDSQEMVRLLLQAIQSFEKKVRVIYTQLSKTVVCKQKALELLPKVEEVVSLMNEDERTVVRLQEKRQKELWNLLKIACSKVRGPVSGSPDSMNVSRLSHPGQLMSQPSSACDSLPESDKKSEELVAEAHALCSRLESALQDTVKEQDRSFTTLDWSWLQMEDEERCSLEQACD

[12] = target: MAP kinase p38 (Mus musculus) (UniProt P47811+O08911+Q9WUI1+Q9Z1B7); test: Inhibition of p38 phosphorylation in LPS-stimulated mouse BV-2 cells at 15 to 60 uM pretreated with compound for 1 hr followed by LPS stimulation for 24 hrs by Western blot analysis; format: cell-based; conditions: dose 15-60 µM, time 25.0 hrs
[13] = system: BV-2; test: Antiinflammatory activity in mouse BV-2 cells assessed as inhibition of LPS-induced NO production pretreated with compound for 1 hr followed by LPS stimulation for 24 hrs by Griess reagent based assay; format: functional, cell-based

SMILES | Activity [1] | inhibition [2] | other results
Cc1cc(O)cc(O)c1C(=O)OC[C@@]1(C[C@@H](C)O)C[C@@H](O)C(=O)O1 | Non-Toxic |  | 
C=C/C=C/[C@@H]1OC[C@H](/C=C/C=C/C)[C@H]1O | Non-Toxic |  | 
C=C/C=C/[C@@H]1OC[C@H](/C=C/[C@@H](O)[C@H](C)O)[C@H]1O | Non-Toxic |  | 
C=C/C=C/[C@@H]1OC[C@@H](/C=C/C=C/C)[C@@H]1O | Non-Toxic |  | 
C/C=C/C=C/[C@H]1CO[C@@H](/C=C/[C@@H](O)CO)[C@@H]1O | Non-Toxic | Active | 
C=C/C=C/[C@@H]1OC[C@H](/C=C/[C@@H](O)[C@@H](C)O)[C@H]1O | Non-Toxic |  | 
C=C/C=C/[C@@H]1OC[C@H](/C=C/C[C@H](C)O)[C@H]1O | Non-Toxic | Active | 
Cc1cc(O)cc(O)c1C(=O)OCC(=O)[C@@H](O)[C@H](C)O [GLOBOSUMONE C] | Non-Toxic |  | 
C/C=C/C=C/[C@H]1CO[C@@H](/C=C/[C@H](O)CO)[C@@H]1O | Non-Toxic |  | Activity [3]: Active; Activity [4]: Active; Activity [5]: Active; Activity [6]: Active; Activity [7]: Active; Activity [8]: Active; inhibition [9]: Active; inhibition [10]: Active; inhibition [11]: Active; inhibition [12]: Active; IC50 [13]: 16.6 µM
C=C/C=C/[C@H]1OC[C@@H]([C@@H](O)/C=C/[C@@H](C)O)[C@@H]1O | Non-Toxic | Active | 
